Results: the supplement of paper PMC10307832

Key:
Assay in all cases: relative viability (nuclei count vs DMSO), 5 days (fraction); higher = more cells survive
A549 = test system: A549
How it was run: (§1)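 Values are medians from duplicate plates. Each reflects relative viability, defined as the nuclei count of treated wells over that of vehicle wells. Lung cancer cell lines in 1536-well plates were pin-tool dosed one day after seeding with one drug alone or with a fixed anchor-drug dose plus five library-drug doses (not always all listed) in √10 steps, then fixed, stained and imaged at 4× after 5 days.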

ABC-1 = test system: ABC-1
How it was run: as §1

Calu-6 = test system: Calu-6
How it was run: as §1

EBC-1 = test system: EBC-1
How it was run: as §1

EKVX = test system: EKVX
How it was run: as §1

HCC-44 = test system: HCC-44
How it was run: as §1

IA-LM = test system: IA-LM
How it was run: as §1

NCI-H1299 = test system: NCI-H1299
How it was run: as §1

NCI-H1703 = test system: NCI-H1703
How it was run: as §1

NCI-H1993 = test system: NCI-H1993
How it was run: as §1

NCI-H2085 = test system: NCI-H2085
How it was run: as §1

NCI-H2126 = test system: NCI-H2126
How it was run: as §1

RERF-LC-KJ = test system: RERF-LC-KJ
How it was run: as §1

In the case of `CCN(CC)CCCCNc1ncc2cc(-c3cc(OC)cc(OC)c3)c(NC(=O)NC(C)(C)C)nc2n1` + C[C@]1(O)C[C@@H](c2nc(-c3ccc4ccc(-c5ccccc5)nc4c3)c3c(N)nccn32)C1 [Linsitinib] (partner 1 µM), the relative viability (A549; first compound 0.01 µM) is reported as 0.623, the relative viability (A549; first compound 0.03162 µM) is reported as 0.626 and the relative viability (A549; first compound 0.1 µM) is reported as 0.563. It also gave a relative viability (A549; first compound 0.3162 µM) of 0.636, a relative viability (A549; first compound 1 µM) of 0.595 and a relative viability (ABC-1; first compound 0.01 µM) of 0.915. It also gave a relative viability (ABC-1; first compound 0.03162 µM) of 0.809, a relative viability (ABC-1; first compound 0.1 µM) of 0.88 and a relative viability (ABC-1; first compound 0.3162 µM) of 0.838. The relative viability (ABC-1; first compound 1 µM) was 0.722, the relative viability (Calu-6; first compound 0.03162 µM) was 0.946 and the relative viability (Calu-6; first compound 0.1 µM) was 0.969. It also gave a relative viability (Calu-6; first compound 0.3162 µM) of 0.898, a relative viability (Calu-6; first compound 1 µM) of 1.02 and a relative viability (EBC-1; first compound 0.01 µM) of 0.885. The relative viability (EBC-1; first compound 0.03162 µM) was 1.04, the relative viability (EBC-1; first compound 0.1 µM) was 0.994 and the relative viability (EBC-1; first compound 0.3162 µM) was 1.06. It also gave a relative viability (EBC-1; first compound 1 µM) of 0.879, a relative viability (EKVX; first compound 0.01 µM) of 1.11 and a relative viability (EKVX; first compound 0.03162 µM) of 1.1. It also gave a relative viability (EKVX; first compound 0.1 µM) of 0.93, a relative viability (EKVX; first compound 0.3162 µM) of 1.09 and a relative viability (EKVX; first compound 1 µM) of 0.883. The relative viability (HCC-44; first compound 0.01 µM) was 0.752, the relative viability (HCC-44; first compound 0.03162 µM) was 0.709 and the relative viability (HCC-44; first compound 0.1 µM) was 0.749. The relative viability (HCC-44; first compound 0.3162 µM) was 0.684, the relative viability (HCC-44; first compound 1 µM) was 0.614 and the relative viability (IA-LM; first compound 0.01 µM) was 0.757. For the same compound, the relative viability (IA-LM; first compound 0.03162 µM) was 0.748, the relative viability (IA-LM; first compound 0.1 µM) was 0.621 and the relative viability (IA-LM; first compound 0.3162 µM) was 0.78. It also gave a relative viability (IA-LM; first compound 1 µM) of 0.506, a relative viability (NCI-H1299; first compound 0.01 µM) of 1.01 and a relative viability (NCI-H1299; first compound 0.03162 µM) of 1.01. It also gave a relative viability (NCI-H1299; first compound 0.1 µM) of 0.986, a relative viability (NCI-H1299; first compound 0.3162 µM) of 1.09 and a relative viability (NCI-H1299; first compound 1 µM) of 0.944. For the same compound, the relative viability (NCI-H1703; first compound 0.01 µM) was 1.02, the relative viability (NCI-H1703; first compound 0.03162 µM) was 0.63 and the relative viability (NCI-H1703; first compound 0.1 µM) was 0.792. For the same compound, the relative viability (NCI-H1703; first compound 0.3162 µM) was 0.959, the relative viability (NCI-H1703; first compound 1 µM) was 0.967 and the relative viability (NCI-H1993; first compound 0.01 µM) was 0.763. The relative viability (NCI-H1993; first compound 0.03162 µM) was 0.807, the relative viability (NCI-H1993; first compound 0.1 µM) was 0.831 and the relative viability (NCI-H1993; first compound 0.3162 µM) was 0.751. It also gave a relative viability (NCI-H1993; first compound 1 µM) of 0.731, a relative viability (NCI-H2085; first compound 0.01 µM) of 0.977 and a relative viability (NCI-H2085; first compound 0.03162 µM) of 0.949. It also gave a relative viability (NCI-H2085; first compound 0.1 µM) of 1.07, a relative viability (NCI-H2085; first compound 0.3162 µM) of 0.918 and a relative viability (NCI-H2085; first compound 1 µM) of 0.887. For the same compound, the relative viability (NCI-H2126; first compound 0.01 µM) was 0.725, the relative viability (NCI-H2126; first compound 0.03162 µM) was 0.712 and the relative viability (NCI-H2126; first compound 0.1 µM) was 0.794. The relative viability (NCI-H2126; first compound 0.3162 µM) was 0.674, the relative viability (NCI-H2126; first compound 1 µM) was 0.708 and the relative viability (RERF-LC-KJ; first compound 0.01 µM) was 0.891. The relative viability (RERF-LC-KJ; first compound 0.03162 µM) was 0.961, the relative viability (RERF-LC-KJ; first compound 0.1 µM) was 1.04 and the relative viability (RERF-LC-KJ; first compound 0.3162 µM) was 1.01. It also gave a relative viability (RERF-LC-KJ; first compound 1 µM) of 0.887.
